Experimental data: patent publication US20250221965A1, “THERAPEUTIC AGENT FOR RESPIRATORY DISEASE” (THE JIKEI UNIVERSITY, priority 2022, published 2025)

Tests used:
[1] = tested on: TFEB expression in cultured human airway epithelial cells (BEAS2B); assay: Induction of TFEB expression in human airway epithelial cell; type: cell-based; conditions: 24 hours
Protocol: The effect of pemafibrate was examined with reference to a procedure described in a literature ([…], et al.: Autophagy (2019), 15(3): 510). That is, cultured human airway epithelial cells (BEAS2B) were cultured in a culture medium supplemented with 10 nM or 100 nM of pemafibrate for 24 hours, and were compared to a control (0 nM).

[2] = tested on: cigarette smoke-exposed COPD model; assay: Cigarette smoke-exposed COPD model; type: in vivo, C57BL/6J mice
Excerpt: The effect of pemafibrate was examined with reference to a procedure described in a literature ([…], et al.: Autophagy (2019), 15(3): 510)). That is, C57BL/6J mice were exposed to cigarette smoke with an exposure and inhalation system for small animals five times a week for 6 months. The mice were classified into a total of 4 groups as follows: the mice were classified into a normal diet group (Ctrl) and a 0.0003 w/w % pemafibrate mixed feed group (Pema), and the groups were each further classified into a room air group (RA) and a cigarette smoke exposure group (CS). First, a lung after the completion of the administration of pemafibrate was removed from the room air group (RA), and was evaluated for the expression of TFEB by being homogenized. […] Next, a bronchoalveolar lavage fluid was collected and evaluated for its cells. […] In addition, an alveolar diameter was measured and the degree of emphysema was evaluated.

[3] = tested on: p21 expression in human-derived cultured airway epithelial cells (HBEC) with cigarette smoke extract; assay: Action on smoking stimulation-induced cell senescence (p21 expression); type: cell-based; conditions: 24 hours
Protocol: The effect of pemafibrate was examined with reference to a procedure described in a literature (Saito N, et al.: J Immunol (2019), 202: 1428). That is, human-derived cultured airway epithelial cells (HBEC) were cultured in a culture medium supplemented with 10 nM to 100 nM of pemafibrate together with 1% cigarette smoke extract (CSE) for 24 hours, and were compared to a control (0 nM).

## CC[C@@H](Oc1cccc(CN(CCCOc2ccc(OC)cc2)c2nc3ccccc3o2)c1)C(=O)O [pemafibrate, (R)-2-[3-[[N-(benzoxazol-2-yl)-N-3-(4-methoxyphenoxy)propyl]aminomethyl]phenoxy]butyric acid]
[1]; 10 nM or 100 nM pemafibrate, vs control (0 nM), FIG. 1
  expression of TFEB: increased in a manner dependent on the dose
[1]; 10 nM or 100 nM, vs control, p<0.05
  ratio of the expression amount of TFEB to the expression amount of ACTB: a significant difference was observed as compared to the control
[2]; cigarette smoke exposure (CS) 6 months, 0.0003 w/w % mixed feed, FIG. 5 and 6
  destruction of lung structure (alveolar diameter, degree of emphysema): the destruction of a lung structure due to the cigarette smoke exposure (CS) was suppressed
[2]; cigarette smoke exposure (CS) 6 months, 0.0003 w/w % mixed feed, FIG. 7
  cell senescence due to cigarette smoke exposure: the cell senescence due to the cigarette smoke exposure (CS) was suppressed
[2]; room air group (RA), 0.0003 w/w % pemafibrate mixed feed, 6 months, FIG. 3
  expression of TFEB in lung homogenate: an increase in expression of TFEB was observed
[3]; 10 nM to 100 nM pemafibrate with 1% CSE, FIG. 2
  expression of p21 increased by CSE stimulation: suppressed by pemafibrate in a dose-dependent manner
[3]; 1% CSE
  suppressing action on cell senescence: had a suppressing action on cell senescence
[3]; 1% CSE, p<0.05
  pemafibrate concentration giving significant difference in ratio of p21 to ACTB expression vs control: ≥ 20 nM
